Measured values as given in patent US20150125457A1, “BONE REPAIR PROMOTER” (DAIICHI SANKYO COMPANY, LIMITED, priority 2012, published 2015).
Where “and” joins values, the source holds several entries; their conditions need not be identical. Equal values may be shown once.

Assays:
Format in all cases: in vivo
rat femur fracture model [1] = experiment: Rat femur fracture model, soft X-ray radiography of femurs; conditions: 10 or 100 nmol/kg s.c. once per day for 8 weeks; FIG. 1
Method: A fracture model was surgically prepared at the left femoral diaphysis of a 6-week-old female SD strain (Crl: CD) IGS rat. A barbital-based anesthetic agent (Somnopentyl®, Kyoritsu Seiyaku Corporation) was intraperitoneally administered to an animal in order to anesthetize the animal. Isoflurane (Escain, Mylan Inc.) inhalation anesthesia was performed as an adjunct to anesthesia. The skin on the upside of the knee joint was incised, exfoliation was performed between the rectus femoris muscle and the vastus lateralis muscle to expose the femur. At around 0.5 mm distal from the center of the femoral diaphysis, the diaphysis was completely cut in cross-section by a bone cutter (Osada Equipment Co., Ltd.). […] For the resected bone, the bone length, and the callus size in the fracture site were measured, the left and right femurs were subjected to soft X-ray radiography, and then the healing state in the fracture site was determined. […] At 2, 4, and 6 weeks after the administration, one from each of the cases was sampled for follow-up, further the one in the control group, which had shown nonunion-like symptoms, was excluded from the evaluation, and eventually the results were evaluated as a group of 10 rats.

rat femur fracture model [2] = experiment: Rat femur fracture model, tissue observation in the femur fracture site
Method: (§1) A fracture model was surgically prepared at the left femoral diaphysis of a 6-week-old female SD strain (Crl: CD) IGS rat. A barbital-based anesthetic agent (Somnopentyl®, Kyoritsu Seiyaku Corporation) was intraperitoneally administered to an animal in order to anesthetize the animal. Isoflurane (Escain, Mylan Inc.) inhalation anesthesia was performed as an adjunct to anesthesia. The skin on the upside of the knee joint was incised, exfoliation was performed between the rectus femoris muscle and the vastus lateralis muscle to expose the femur. At around 0.5 mm distal from the center of the femoral diaphysis, the diaphysis was completely cut in cross-section by a bone cutter (Osada Equipment Co., Ltd.). After that, an injection needle 21G was inserted into the bone marrow between the greater trochanter and the femur neck of the left femur, and the muscle and the skin were sutured with 2 to 3 stitches. For the prevention of post-operative suppuration, potassium penicillin G for injection (Meiji Seika Kaisha, Limited) was administered as an antibiotic, and the suture site of the skin was disinfected with povidone-iodine (Isodine®, Meiji Seika Kaisha, Limited). As the test substance, CNP derivative A (SEQ ID NO: 13: the SEQ ID NO: 157 of the publication of US patent application US 2010-305031, produced by a method described in the publication) was used for repeated subcutaneous administration at 10 or 100 nmol/kg once per day for 8 weeks. Vehicle was administered to the control group. On the next day after the administration end date, the left and right femurs and the left and right tibiae were resected. For the resected bone, the bone length, and the callus size in the fracture site were measured, the left and right femurs were subjected to soft X-ray radiography, and then the healing state in the fracture site was determined. After that, a three-point bending strength test was performed by using a bone strength measuring device MZ-500S (MARUTO INSTRUMENT CO., LTD.), and a bone strength testing system CTR win Ver. 1.21 (System Supply Co., Ltd.). The bone after finishing the measurements was fixed with 10% neutral buffered formalin, and the pathologic sample was prepared and observed. The administration was performed to a group of 14 rats including spare rats. At 2, 4, and 6 weeks after the administration, one from each of the cases was sampled for follow-up, further the one in the control group, which had shown nonunion-like symptoms, was excluded from the evaluation, and eventually the results were evaluated as a group of 10 rats.

rat femur fracture model [3] = experiment: Rat femur fracture model (surgically cut femoral diaphysis), three-point bending bone strength test; conditions: for Break deformation / Break energy / Break strength / Maximum load / Stiffness (Δ70%-20%) / Break deformation, left/right ratio / Break energy, left/right ratio / Break strength, left/right ratio / Maximum load, left/right ratio / Stiffness (Δ70%-20%), left/right ratio: mean ± SD, N=10; for Break deformation, left/right ratio / Break energy, left/right ratio / Break strength, left/right ratio / Maximum load, left/right ratio / Stiffness (Δ70%-20%), left/right ratio: ratio of left/right femurs
Method: as §1

[4] = test system: rat closed femur fracture model; experiment: Rat closed femur fracture model, callus diameter; conditions: 0.5 mg/kg/day continuous s.c. for one week; 7 days after fracture; versus vehicle group; FIG. 5B
Method: In accordance with the method of Example 2, a rat closed fracture model was prepared. An administration solution was prepared so as to be a dosage corresponding to 0.5 mg/kg/day by using various NPR-B agonists (CNP derivative A, hCNP-53 (SEQ ID NO: 2), CNP derivative C (CNP-36, amino acid Nos. 18 to 53 of SEQ ID NO: 2), and CNP derivative D (Pro-Gly-CNP37, SEQ ID NO: 15)), and then loaded into an osmotic pump (Model 2001, Alzet). The osmotic pump was buried under the skin of the neck back of the animal retained in a supine position, and continuous subcutaneous administration was performed for one week. Vehicle was administered to the control group. 7 days after the preparation of the bone fracture, the animal was subjected to isoflurane inhalation anesthesia, retained in a supine position to open the abdomen, and then subjected to blood collection from the abdominal aorta. EDTA Na was added to the blood, then the EDTA Na-added blood was centrifuged and the plasma separated, and the resultant was cryopreserved. At a later date, the cGMP level in the plasma was measured by a RIA method using a kit (YSI-7702, YAMASA CORPORATION). After blood collection, the animal was bled for the euthanasia, and then the left femur was resected. Each maximum diameter of the sagittal plane and the coronal plane in the callus was measured, and the average value was used as a callus diameter. In accordance with the method of Example 3, the type X collagen gene expression level in the callus was measured. The measurement was performed for 12 cases in each group.

[5] = 10 nmol/kg, 8-week administration, left femur fracture site, grade 0-5, mean ± SD, N=10
[6] = 100 nmol/kg, 8-week administration, left femur fracture site, grade 0-5, mean ± SD, N=10
[7] = 100 nmol/kg, 8 weeks, compared to the control group
[8] = 10 nmol/kg s.c. once per day for 8 weeks, fractured left femur
[9] = 10 nmol/kg s.c. once per day for 8 weeks
[10] = 10 nmol/kg s.c. once per day for 8 weeks, untreated right femur
[11] = 100 nmol/kg s.c. once per day for 8 weeks, fractured left femur
[12] = 100 nmol/kg s.c. once per day for 8 weeks
[13] = 100 nmol/kg s.c. once per day for 8 weeks, untreated right femur

CNP derivative A: CNP (1-22) Ghrelin (12-28, E17D): SEQ ID NO: 13; SEQ ID NO: 157 of US 2010-305031 (GLSKGCFGLKLDRIGSMSGLGCVQQRKDSKKPPAKLQPR; Chimeric CNP J (SEQ ID NO157) of US2010-305031 and WO2009/142307, and CNP derivative A of current invention.)
Continuity of the cortical bone in soft X-ray images of femurs (rat femur fracture model [1]): tendency for enhanced continuity of the cortical bone | Remaining fracture line in soft X-ray images of femurs (rat femur fracture model [1]): decreasing tendency for the fracture line to remain | Callus Amount (rat femur fracture model [2]; [5]): 2.1 ± 1.0 Grade | Callus Cartilage (rat femur fracture model [2]; [5]): 1.5 ± 2.0 Grade | Callus Continuity (rat femur fracture model [2]; [5]): 3.2 ± 2.1 Grade | Cortical bone/bone marrow areas Cancellous bone (rat femur fracture model [2]; [5]): 2.9 ± 1.7 Grade | Cortical bone/bone marrow areas Cartilage (rat femur fracture model [2]; [5]): 0.9 ± 1.7 Grade | Cortical bone/bone marrow areas Connective tissue (rat femur fracture model [2]; [5]): 0.7 ± 1.6 Grade | Cortical bone/bone marrow areas Osteoclasts (rat femur fracture model [2]; [5]): 0.6 ± 1.1 Grade | Callus Amount (rat femur fracture model [2]; [6]): 2.3 ± 1.2 Grade | Cortical bone/bone marrow areas Cancellous bone (rat femur fracture model [2]; [6]): 3.0 ± 1.1 Grade | Cortical bone/bone marrow areas Continuity (rat femur fracture model [2]; [6]): 2.7 ± 1.8 Grade | Grade of cartilage formation (rat femur fracture model [2]; [7]): tendency for a decreasing grade of cartilage formation | Grade of ossification of the callus (rat femur fracture model [2]; [7]): tendency for an increasing grade of ossification of the callus | Repair of the bone cut region (rat femur fracture model [2]; overall conclusion of tissue observation, 8 weeks after fracture): promoted | Break deformation (rat femur fracture model [3]; [8]): 1.15 ± 0.58 mm | Break energy (rat femur fracture model [3]; [8]): 45.91 ± 26.15 N.mm | Break strength (rat femur fracture model [3]; [8]): 72.05 ± 30.40 N | Maximum load (rat femur fracture model [3]; [8]): 81.98 ± 34.64 N | Stiffness (Δ70%-20%) (rat femur fracture model [3]; [8]): 138.36 ± 89.14 N/mm | Break deformation, left/right ratio (rat femur fracture model [3]; [9]): 1.15 ± 0.57 | Break energy, left/right ratio (rat femur fracture model [3]; [9]): 0.75 ± 0.33 | Break strength, left/right ratio (rat femur fracture model [3]; [9]): 0.80 ± 0.33 | Maximum load, left/right ratio (rat femur fracture model [3]; [9]): 0.86 and 0.86 ± 0.35 | Stiffness (Δ70%-20%), left/right ratio (rat femur fracture model [3]; [9]): 0.75 ± 0.48 | Break deformation (rat femur fracture model [3]; [10]): 0.99 ± 0.15 mm | Break energy (rat femur fracture model [3]; [10]): 59.55 ± 12.33 N.mm | Break strength (rat femur fracture model [3]; [10]): 89.22 ± 6.58 N | Maximum load (rat femur fracture model [3]; [10]): 95.08 ± 5.29 N | Stiffness (Δ70%-20%) (rat femur fracture model [3]; [10]): 187.11 ± 32.64 N/mm | Break deformation (rat femur fracture model [3]; [11]): 1.04 ± 0.45 mm | Break energy (rat femur fracture model [3]; [11]): 53.90 ± 24.24 N.mm | Break strength (rat femur fracture model [3]; [11]): 80.02 ± 15.97 N | Maximum load (rat femur fracture model [3]; [11]): 87.59 ± 19.00 N | Stiffness (Δ70%-20%) (rat femur fracture model [3]; [11]): 162.09 ± 105.67 N/mm | Break deformation, left/right ratio (rat femur fracture model [3]; [12]): 1.02 ± 0.38 | Break energy, left/right ratio (rat femur fracture model [3]; [12]): 0.90 and 0.90 ± 0.36 | Break strength, left/right ratio (rat femur fracture model [3]; [12]): 1.06 ± 0.33 | Maximum load, left/right ratio (rat femur fracture model [3]; [12]): 1.03 and 1.03 ± 0.28 | Stiffness (Δ70%-20%), left/right ratio (rat femur fracture model [3]; [12]): 0.85 ± 0.64 | Break deformation (rat femur fracture model [3]; [13]): 1.01 ± 0.17 mm | Break energy (rat femur fracture model [3]; [13]): 60.82 ± 13.73 N.mm | Break strength (rat femur fracture model [3]; [13]): 77.75 ± 10.46 N | Maximum load (rat femur fracture model [3]; [13]): 86.89 ± 10.96 N | Stiffness (Δ70%-20%) (rat femur fracture model [3]; [13]): 200.64 ± 43.22 N/mm | Break energy in a fracture site of the left femur, dose dependence (rat femur fracture model [3]; 10 and 100 nmol/kg s.c. once per day for 8 weeks, versus vehicle): increased CNP derivative A-dose dependently | Maximum diameter of the callus generated in the left femur [4]: significantly larger
